According to patent publication US20050080024A1, “Nitric oxide donating derivatives for the treatment of cardiovascular disorders” (priority 2002, published 2005):
Like-named read-outs stand apart in the source and are kept apart here.

Experiments:
[1] = test system: C. albicans; assay: Murine model for systemic candidiasis; type: in vivo; settings: treated mice; fluconazole orally
Protocol: In addition, fungicidal compounds of the invention are efficacious in a murine model for systemic candidiasis. Fungicidal compounds of the invention prolong mean and median survival times of treated mice. The compounds are administered IP producing a similar survival pattern as that produced by the positive control compound fluconazole administered orally. […] Fungicidal compounds of the invention are also efficacious when administered orally to mice with an established systemic Candida infection. The compound given orally is similar in efficacy to fluconazole as measured by survival time, percent cures and kidney burden. Fungicidal compounds of the invention are also effective against systemic candidiasis caused by a strain of C. albicans resistant to fluconazole.

[2] = human study; cited from earlier work
[3] = rabbits; cited from earlier work
[4] = test system: ApoA-1 gene; settings: putatively mediated through Site S (PCT/CA03/01220); cited from earlier work

OC(Cn1cncn1)(Cn1cncn1)c1ccc(F)cc1F [fluconazole]
recoverable colonies from the kidneys [1]: reduce recoverable colonies from the kidneys

O=C1CC(c2ccc(O)cc2)Oc2cc(O)cc(O)c21 (stereo not shown) [naringenin, 5,7-dihydroxy-2-(4-hydroxy-phenyl)-chroman-4-one]
HDL [2]: increase HDL
LDL [2]: no effect
triglycerides [2]: no effect
HDL [3]: no effect upon HDL
LDL [3]: decrease LDL

Oc1ccc(/C=C/c2cc(O)cc(O)c2)cc1 [resveratrol, 5-[(E)-2-(4-hydroxy-phenyl)-vinyl]-benzene-1,3-diol]
transcription of apolipoprotein Al [4]: increase the transcription of apolipoprotein Al
